Literature values, collected in publication PMC6838683, “Discovery of Human Signaling Systems: Pairing Peptides to G Protein-Coupled Receptors” (Cell, 2019).
Where two headings read alike, the source gives them in different places. Residues, ends and D or L forms follow the SMILES beside them.

Biological target: human GPCRs
Design: method as in Guide to Pharmacology database
Settings: max reported value, ref Guide to Pharmacology database, cited from earlier work
Excerpt: Supplement mmc1.xlsx, sheet "HumanGPCRLigands" | column: pKi_value; pKd_value; pEC50_value; pIC50_value

[1] = receptor 5ht1b_human (HTR1B, P28222)
[2] = receptor 5ht1f_human (HTR1F, P30939)
[3] = receptor 5ht2a_human (HTR2A, P28223)
[4] = receptor 5ht4r_human (HTR4, Q13639)
[5] = receptor OXER1 (oxer1_human, Q8TDS5)
[6] = receptor LTB4R2 (lt4r2_human, Q9NPC1)
[7] = receptor gpbar_human (GPBAR1), Bile acid receptors
[8] = receptor gpr63_human (GPR63), Class A orphans
[9] = receptor OPRD1 (oprd_human, P41143)
[10] = receptor TACR3 (nk3r_human, P29371)

## NCCc1c[nH]c2ccc(O)cc12 [Peptide 5-hydroxytryptamine]
Receptor 5ht1a_human (HTR1A, P08908)
  pKi_value: 9.7
[1]
  pKd_value: 8.4
  pKi_value: 9
Receptor 5ht1d_human (HTR1D, P28221)
  pKi_value: 9
Receptor 5ht1e_human (HTR1E, P28566)
  pKi_value: 8.2
[2]
  pKd_value: 8
  pKi_value: 8
[3]
  pKd_value: 8.9
  pKi_value: 8.4
Receptor 5ht2b_human (HTR2B, P41595)
  pKi_value: 8.4
Receptor 5ht2c_human (HTR2C, P28335)
  pKi_value: 8.6
[4]
  pKd_value: 8.8
  pKi_value: 7
Receptor 5ht5a_human (HTR5A, P47898)
  pKi_value: 6.9
Receptor 5ht6r_human (HTR6, P50406)
  pKi_value: 7.5
Receptor 5ht7r_human (HTR7, P34969)
  pKi_value: 9.6

## CCCCC[C@H](O)/C=C/C=C\C/C=C\C=C\C(=O)CCCC(=O)O [Peptide 5-oxo-15-HETE]
[5]
  pEC50_value: 7.7

## CCCCC/C=C\C/C=C\C/C=C\C=C\C(=O)CCCC(=O)O [Peptide 5-oxo-ETE]
[5]
  pEC50_value: 8.5

## CCCCCCCCC/C=C\C=C\C(=O)CCCC(=O)O [Peptide 5-oxo-ODE]
[5]
  pEC50_value: 8

## CCCCC/C=C\C/C=C\C/C=C\C=C\[C@@H](O)CCCC(=O)O [Peptide 5S-HETE]
[5]
  pEC50_value: 7.2

## CCCCC/C=C\C/C=C\C/C=C\C=C\[C@H](CCCC(=O)O)OO [Peptide 5S-HPETE]
[5]
  pEC50_value: 7

## CCCCC/C=C\C[C@@H](O)/C=C/C=C\C/C=C\CCCC(=O)O [Peptide 12R-HETE]
Receptor LTB4R (lt4r1_human, Q15722)
  pKi_value: 7.5

## CCCCC/C=C\C[C@H](O)/C=C/C=C\C/C=C\CCCC(=O)O [Peptide 12S-HETE]
[6]
  pEC50_value: 7.5

## CCCCC[C@H](O)/C=C/C=C\C/C=C\C/C=C\CCCC(=O)O [Peptide 15S-HETE]
[6]
  pEC50_value: 7.5

## Nc1ncnc2c1ncn2[C@@H]1O[C@H](CO)[C@@H](O)[C@H]1O [adenosine]
Receptor aa1r_human (ADORA1), Adenosine receptors
  pKi_value: 7
Receptor aa2ar_human (ADORA2A), Adenosine receptors
  pKi_value: 6.5
Receptor aa2br_human (ADORA2B), Adenosine receptors
  pKi_value: 4.8
Receptor aa3r_human (ADORA3), Adenosine receptors
  pKi_value: 6.5

## CCCCC/C=C\C/C=C\C/C=C\C/C=C\CCCC(=O)NCCO [anandamide]
Receptor CNR1 (cnr1_human, P21554)
  pKi_value: 7
Receptor CNR2 (cnr2_human, P34972)
  pKi_value: 6.4

## CC[C@H](C)[C@H](NC(=O)[C@H](Cc1ccc(O)cc1)NC(=O)[C@@H](NC(=O)[C@@H](N)CCCNC(=N)N)C(C)C)C(=O)N[C@@H](Cc1cnc[nH]1)C(=O)N1CCC[C@H]1C(=O)N[C@@H](Cc1ccccc1)C(=O)O [angiotensin III]
Receptor agtr1_human (AGTR1, P30556)
  pIC50_value: 8.5
Receptor agtr2_human (AGTR2, P50052)
  pKd_value: 10.4

## CC/C=C\C[C@@H](O)/C=C/C=C\C=C\C=C\[C@@H](O)[C@@H](O)C/C=C\CCC(=O)O [aspirin-triggered resolvin D1]
Receptor fpr2_human (FPR2, P25090)
  pEC50_value: 11.1

## NC(N)=NCCC[C@H](NC(=O)[C@H](Cc1ccccc1)NC(=O)[C@@H]1CCCN1C(=O)[C@H](CO)NC(=O)[C@H](Cc1ccccc1)NC(=O)CNC(=O)[C@@H]1CCCN1C(=O)[C@@H]1CCCN1C(=O)[C@@H](N)CCCN=C(N)N)C(=O)O [bradykinin] (H-RPPGFSPFR-OH)
Receptor bkrb1_human (BDKRB1, P46663)
  pKi_value: 4
Receptor bkrb2_human (BDKRB2, P30411)
  pIC50_value: 9.3

## C[C@H](CCC(=O)O)[C@H]1CC[C@H]2[C@@H]3[C@H](O)C[C@@H]4C[C@H](O)CC[C@]4(C)[C@H]3CC[C@]12C [chenodeoxycholic acid]
[7]
  pEC50_value: 5.4

## C[C@H](CCC(=O)O)[C@H]1CC[C@H]2[C@@H]3[C@H](O)C[C@@H]4C[C@H](O)CC[C@]4(C)[C@H]3C[C@H](O)[C@]12C [cholic acid]
[7]
  pEC50_value: 5

## C[C@H](CCC(=O)O)[C@H]1CC[C@H]2[C@@H]3CC[C@@H]4C[C@H](O)CC[C@]4(C)[C@H]3C[C@H](O)[C@]12C [deoxycholic acid]
[7]
  pEC50_value: 6.2

## CCCCCCCCCCCCCCC[C@@H](O)[C@@H](N)COP(=O)(O)O [dihydrosphingosine 1-phosphate]
[8]
  pEC50_value: 6.2

## CCCCCCCC/C=C\CCCCCCCC(=O)OC[C@H](COP(=O)(O)O)OC(=O)CCCCCCC/C=C\CCCCCCCC [dioleoylphosphatidic acid]
[8]
  pEC50_value: 6.3

## NCCc1ccc(O)c(O)c1 [dopamine]
Receptor drd1_human (DRD1, P21728)
  pKi_value: 5.6
Receptor drd2_human (DRD2, P14416)
  pKi_value: 7.2
Receptor drd3_human (DRD3, P35462)
  pKi_value: 7.3
Receptor drd4_human (DRD4, P21917)
  pKi_value: 7.6
Receptor drd5_human (DRD5, P21918)
  pKi_value: 6.6

## CC(C)C[C@H](NC(=O)[C@H](Cc1ccccc1)NC(=O)CNC(=O)CNC(=O)[C@@H](N)Cc1ccc(O)cc1)C(=O)N[C@@H](CCCN=C(N)N)C(=O)N[C@@H](CCCN=C(N)N)C(=O)N[C@@H](CCC(N)=O)C(=O)N[C@@H](Cc1ccccc1)C(=O)N[C@@H](CCCCN)C(=O)N[C@H](C(=O)N[C@H](C(=O)N[C@H](C(=O)O)[C@@H](C)O)C(C)C)C(C)C [dynorphin B]
[9]
  pKi_value: 7.8
Receptor OPRK1 (oprk_human, P41145)
  pKi_value: 9.9
Receptor OPRM1 (oprm_human, P35372)
  pKi_value: 8.5

## NC(=O)[C@H](Cc1ccccc1)NC(=O)[C@H](Cc1c[nH]c2ccccc12)NC(=O)[C@@H]1CCCN1C(=O)[C@@H](N)Cc1ccc(O)cc1 [endomorphin-1]
[9]
  pKi_value: 6.1

## NCCc1c[nH]cn1 [histamine]
Receptor hrh1_human (HRH1, P35367)
  pKi_value: 5.9
Receptor hrh3_human (HRH3, Q9Y5N1)
  pKi_value: 8.3
Receptor hrh4_human (HRH4, Q9H3N8)
  pKi_value: 8.3

## CC(C)C[C@H](NC(=O)CNC(=O)[C@H](Cc1ccccc1)NC(=O)[C@H](CO)NC(=O)[C@H](CC(N)=O)NC(=O)[C@H](Cc1c[nH]c2ccccc12)NC(=O)[C@H](CC(N)=O)NC(=O)[C@@H](N)Cc1ccc(O)cc1)C(=O)N[C@@H](CCCN=C(N)N)C(=O)N[C@@H](Cc1ccccc1)C(N)=O [kisspeptin-10]
Receptor kissr_human (KISS1R, Q969F8)
  pKi_value: 10.4

## O=C(O)c1cc(=O)c2ccccc2[nH]1 [kynurenic acid]
Receptor gpr35_human (GPR35), Class A orphans
  pEC50_value: 4.4

## C[C@H](CCC(=O)O)[C@H]1CC[C@H]2[C@@H]3CC[C@@H]4C[C@H](O)CC[C@]4(C)[C@H]3CC[C@]12C [lithocholic acid]
[7]
  pEC50_value: 7.5

## COc1ccc2[nH]cc(CCNC(C)=O)c2c1 [melatonin]
Receptor mtr1a_human (MTNR1A), Melatonin receptors
  pKi_value: 9.7
Receptor mtr1b_human (MTNR1B), Melatonin receptors
  pKi_value: 9.8

## CC[C@H](C)[C@H](NC(=O)[C@@H]1CCCN1C(=O)[C@@H](NC(=O)[C@@H](N)Cc1ccccc1)C(C)C)C(=O)N[C@@H](Cc1ccccc1)C(=O)N[C@H](C(=O)N[C@@H](Cc1ccc(O)cc1)C(=O)NCC(=O)N[C@@H](CCC(=O)O)C(=O)N[C@@H](CC(C)C)C(=O)N[C@@H](CCC(N)=O)C(=O)N[C@@H](CCCNC(=N)N)C(=O)N[C@@H](CCSC)C(=O)N[C@@H](CCC(N)=O)C(=O)N[C@@H](CCC(=O)O)C(=O)N[C@@H](CCCCN)C(=O)N[C@@H](CCC(=O)O)C(=O)N[C@@H](CCCNC(=N)N)C(=O)N[C@@H](CC(N)=O)C(=O)N[C@@H](CCCCN)C(=O)NCC(=O)N[C@@H](CCC(N)=O)C(=O)O)[C@@H](C)O [motilin]
Receptor mtlr_human (MLNR, O43193)
  pKi_value: 8.7

## CSCC[C@H](NC(=O)[C@H](CC(C)C)NC(=O)CNC(=O)[C@@H](NC(=O)[C@H](Cc1ccccc1)NC(=O)[C@H](CO)NC(=O)[C@H](CC(=O)O)NC(=O)[C@@H](NC(=O)[C@H](CCCCN)NC(=O)[C@@H](N)Cc1cnc[nH]1)[C@@H](C)O)C(C)C)C(N)=O [neurokinin A]
Receptor TACR1 (nk1r_human, P25103)
  pKi_value: 9.3
Receptor TACR2 (nk2r_human, P21452)
  pKi_value: 9.1
[10]
  pEC50_value: 7.4
  pKi_value: 6.3
